Data taken from ChEMBL document CHEMBL1133858, “BMS-196085: a potent and selective full agonist of the human beta(3) adrenergic receptor” (Bioorg Med Chem Lett, 2001).

Assays:
[1] = test system: ADRB2+ADRB3 (+); experiment: Tested for binding selectivity to beta3 adrenoceptor versus beta2 adrenoceptor
[2] = test system: ADRB1+ADRB3 (+); experiment: Tested for binding selectivity to beta3 adrenoceptor versus beta-1 adrenoceptor
[3] = molecular target: T1, Beta-3 adrenergic receptor (Homo sapiens, UniProt P13945); experiment: Binding affinity to CHO cells expressing the cloned human beta-3 adrenergic receptor in the presence of [125I]iodocyanopindolol; format: cell-based
Target sequence in this assay (P13945 whole entry): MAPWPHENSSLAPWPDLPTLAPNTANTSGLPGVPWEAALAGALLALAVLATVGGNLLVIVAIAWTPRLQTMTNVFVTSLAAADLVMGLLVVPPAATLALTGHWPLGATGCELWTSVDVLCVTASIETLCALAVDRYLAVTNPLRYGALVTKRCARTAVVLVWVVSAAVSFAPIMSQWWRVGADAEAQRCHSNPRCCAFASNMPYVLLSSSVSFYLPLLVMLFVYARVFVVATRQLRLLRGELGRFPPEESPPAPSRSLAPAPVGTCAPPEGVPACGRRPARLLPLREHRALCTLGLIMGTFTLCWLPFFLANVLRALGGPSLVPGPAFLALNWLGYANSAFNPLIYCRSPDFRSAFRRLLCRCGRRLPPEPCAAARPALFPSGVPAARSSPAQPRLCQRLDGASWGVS

[4] = molecular target: T1, Beta-3 adrenergic receptor; experiment: Agonist activity was assessed by measurement of cAMP accumulation levels in CHO membranes expressing human beta-3 receptor; format: functional, cell membranes
Target sequence in this assay (P13945 whole entry, looked up): as the sequence (P13945 whole entry) above

[5] = Tested for lowest dose required to produce change in plasma potassium level divided by effective dose for lipolysis african green monkey 30 min after iv administration; format: functional, Cercopithecidae
[6] = molecular target: Beta-1 adrenergic receptor (Cavia porcellus) (UniProt B0FL73); experiment: Beta1 receptor intrinsic activity is given as a percent of the maximal increase in the beating rate of an isolated spontaneously beating guinea pig atrium induced by isoproterenol; format: functional, tissue-based; conditions: Cardiac atrium
[7] = In vivo effective dose for lipolysis in african monkeys after iv administration; format: functional; conditions: Cercopithecidae
[8] = Tested for Lowest dose required to produce tachycardia divided by effective dose for lipolysis african green monkey 30 min after iv administration; format: functional, Cercopithecidae
[9] = Dose that produced tachycardia in african green monkeys after iv administration; format: functional, Cercopithecidae
[10] = molecular target: T1, Beta-3 adrenergic receptor; experiment: Human beta-3 receptor agonist activity was assessed by measurement of cAMP accumulation levels in CHO cells expressing human beta-3 receptor; format: functional, cell-based
Target sequence in this assay (P13945 whole entry, looked up): as the sequence (P13945 whole entry) above

[11] = Tested for Lowest dose required to produce change in plasma potassium level divided by effective dose for lipolysis african green monkey 30 min after iv administration; format: functional, Cercopithecidae
[12] = molecular target: Beta-2 adrenergic receptor (Homo sapiens) (UniProt P07550); experiment: Tested for Intrinsic activity (IA) against adenylate cyclase in CHO cells transfected with human beta-2 adrenoceptor; format: functional, cell-based
[13] = Oral systemic bioavailability […] to african green monkey; format: ADME, organism-based; conditions: cercopithecidae, in vivo, read-out: Bioavailabiility
[14] = molecular target: Beta-1 adrenergic receptor (Homo sapiens) (UniProt P08588); experiment: Tested for Intrinsic activity (IA) against adenylate cyclase in CHO cells transfected with human beta-1 adrenoceptor; format: functional, cell-based
[15] = Lowest dose required to produce statistically significant hypokalemia divided by ED50 for lipolysis in african green monkeys after 30 min (iv); format: functional, Cercopithecidae
[16] = Tested for volume of distribution upon iv administration to african green monkey; format: ADME, organism-based; conditions: cercopithecidae, in vivo
[17] = Tested for Clearance upon iv administration to african green monkey; format: ADME, organism-based; conditions: cercopithecidae, in vivo
[18] = Tested for half life upon iv administration to african green monkey; format: ADME, organism-based; conditions: cercopithecidae, in vivo
[19] = species: Homo sapiens; experiment: Transdermal flux across human cadaver skin; format: functional
[20] = molecular target: Beta-3 adrenergic receptor (Mus musculus, UniProt P25962); experiment: Tested for binding affinity to murine Beta-3 adrenergic receptor
[21] = Lowest dose required to produce statistically significant tachycardia divided by ED50 for lipolysis in african green monkeys after 30 min (iv); format: functional, Cercopithecidae

Chain of Beta-1 adrenergic receptor (Cavia porcellus) (B0FL73 1-467): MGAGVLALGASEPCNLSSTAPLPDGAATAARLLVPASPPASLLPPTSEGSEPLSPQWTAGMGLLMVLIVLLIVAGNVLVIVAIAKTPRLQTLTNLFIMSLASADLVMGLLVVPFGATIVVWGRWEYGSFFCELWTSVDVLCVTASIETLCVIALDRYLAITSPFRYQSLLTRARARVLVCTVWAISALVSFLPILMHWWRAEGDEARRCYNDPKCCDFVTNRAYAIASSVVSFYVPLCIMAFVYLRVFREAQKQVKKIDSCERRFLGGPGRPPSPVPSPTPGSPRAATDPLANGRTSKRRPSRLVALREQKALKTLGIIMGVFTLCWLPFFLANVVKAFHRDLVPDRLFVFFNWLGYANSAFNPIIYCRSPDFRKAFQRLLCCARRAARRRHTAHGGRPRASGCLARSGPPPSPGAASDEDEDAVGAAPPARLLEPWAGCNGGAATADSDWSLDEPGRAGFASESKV
Chain of Beta-2 adrenergic receptor (Homo sapiens) (P07550 whole entry, looked up): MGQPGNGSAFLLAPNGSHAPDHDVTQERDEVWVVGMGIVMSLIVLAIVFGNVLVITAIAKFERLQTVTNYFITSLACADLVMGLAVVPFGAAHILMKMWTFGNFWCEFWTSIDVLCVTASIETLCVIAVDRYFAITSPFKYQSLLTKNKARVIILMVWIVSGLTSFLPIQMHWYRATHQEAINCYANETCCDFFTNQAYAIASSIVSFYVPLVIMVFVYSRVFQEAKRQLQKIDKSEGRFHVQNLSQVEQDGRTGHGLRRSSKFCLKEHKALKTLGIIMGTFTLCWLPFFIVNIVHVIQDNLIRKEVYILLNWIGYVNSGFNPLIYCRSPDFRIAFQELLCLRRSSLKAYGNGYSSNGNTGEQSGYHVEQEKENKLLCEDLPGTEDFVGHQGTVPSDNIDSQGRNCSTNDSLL
Chain of Beta-3 adrenergic receptor (Mus musculus, UniProt P25962) (P25962 whole entry): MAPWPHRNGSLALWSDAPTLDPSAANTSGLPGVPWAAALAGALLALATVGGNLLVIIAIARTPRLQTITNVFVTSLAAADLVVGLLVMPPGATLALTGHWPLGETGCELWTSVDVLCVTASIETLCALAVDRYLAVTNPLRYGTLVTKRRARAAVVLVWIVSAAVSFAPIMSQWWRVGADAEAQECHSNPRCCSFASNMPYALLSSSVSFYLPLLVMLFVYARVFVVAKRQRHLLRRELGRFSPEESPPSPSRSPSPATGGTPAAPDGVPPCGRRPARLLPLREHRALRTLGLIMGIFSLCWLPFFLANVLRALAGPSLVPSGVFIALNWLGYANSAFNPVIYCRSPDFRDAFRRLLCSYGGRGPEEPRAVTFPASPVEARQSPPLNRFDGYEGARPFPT
Chain of Beta-1 adrenergic receptor (Homo sapiens) (P08588 whole entry, looked up): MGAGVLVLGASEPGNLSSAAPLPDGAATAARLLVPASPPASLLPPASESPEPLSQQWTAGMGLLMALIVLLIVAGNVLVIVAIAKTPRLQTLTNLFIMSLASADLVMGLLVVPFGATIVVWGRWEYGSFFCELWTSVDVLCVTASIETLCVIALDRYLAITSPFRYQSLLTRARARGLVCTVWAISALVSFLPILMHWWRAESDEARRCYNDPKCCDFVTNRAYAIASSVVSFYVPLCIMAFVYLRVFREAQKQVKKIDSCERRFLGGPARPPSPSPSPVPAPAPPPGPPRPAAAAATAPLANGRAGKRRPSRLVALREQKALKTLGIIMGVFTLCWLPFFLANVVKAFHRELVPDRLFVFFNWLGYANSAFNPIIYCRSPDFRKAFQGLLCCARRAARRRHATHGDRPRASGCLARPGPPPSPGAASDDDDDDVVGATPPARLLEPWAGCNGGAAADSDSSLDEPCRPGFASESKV

Compound	Selectivity ratio [1]	Selectivity ratio [2]	Ki [3] [nM]	Intrinsic activity [4] [%]	also measured
CS(=O)(=O)Nc1cc([C@@H](O)CN[C@H](Cc2ccccc2)c2ccc(OC(F)F)c(OC(F)F)c2)ccc1O	0.4	37	38		
CN(C)C(=O)c1ccc([C@@H](Cc2ccccc2)NC[C@H](O)c2ccc(O)c(NS(C)(=O)=O)c2)cc1	0.4	25	800	98	
CS(=O)(=O)Nc1cc([C@@H](O)CNC(Cc2ccccc2)c2ccc(OC(F)(F)F)cc2)ccc1O (stereo partly specified)	2	25	210		
CS(=O)(=O)Nc1cc([C@@H](O)CNC(Cc2ccccc2)c2ccc(Oc3ccccc3)cc2)ccc1O (stereo partly specified)	0.5	4	990		
CS(=O)(=O)Nc1cc([C@@H](O)CN[C@H](Cc2ccccc2)c2cccc3ccccc23)ccc1O	6	33	43	105	Margin before onset of hypokalemia [5]: 2; Activity [6]: 40%; ED50 [7]: 0.25 mg/kg; Margin before onset of tachycardia [8]: 2
CS(=O)(=O)Nc1cc([C@@H](O)CN[C@H](Cc2ccccc2)c2ccc(C#N)cc2)ccc1O	4	30	210	107	
CS(=O)(=O)Nc1cc(C(O)CNC(Cc2ccccc2)c2nccs2)ccc1O (stereo unspecified)	0.6	4	2400	45	
CS(=O)(=O)Nc1cc([C@@H](O)CN[C@H](Cc2ccccc2)c2ccc(C(N)=O)cc2)ccc1O			70	108	
CS(=O)(=O)Nc1cc([C@@H](O)CNC(Cc2ccccc2)c2ccc(OCC(F)(F)F)cc2)ccc1O (stereo partly specified)	1	83	84		
COc1ccc([C@@H](Cc2ccccc2)NC[C@H](O)c2ccc(O)c(NS(C)(=O)=O)c2)c(OC)n1			15	94	Activity [6]: 60%
CS(=O)(=O)Nc1cc([C@@H](O)CN[C@H](Cc2ccccc2)c2ccc3c(c2)OCO3)ccc1O	8	52	8	94	Margin before onset of hypokalemia [5]: 2; Activity [6]: 80%; Dose [9]: 0.1 mg/kg; ED50 [7]: 0.02 mg/kg; Margin before onset of tachycardia [8]: 1
CS(=O)(=O)Nc1cc([C@@H](O)CN[C@H](Cc2ccccc2)c2ccc(C(=O)O)cc2)ccc1O	6	17	8600	123	
CS(=O)(=O)Nc1cc([C@@H](O)CN[C@H](Cc2ccccc2)c2ccc(CC(N)=O)cc2)ccc1O	2	17	74	106	
CS(=O)(=O)Nc1cc([C@@H](O)CN[C@H](Cc2ccccc2)c2ccc(C(=O)NO)cc2)ccc1O	4	537	147	106	
CNC(=O)c1ccc([C@@H](Cc2ccccc2)NC[C@H](O)c2ccc(O)c(NS(C)(=O)=O)c2)cc1	3	79	120	102	
CS(=O)(=O)Nc1cc(C(O)CNC(Cc2ccccc2)c2ccc(F)cc2)ccc1O (stereo unspecified)			836	100	
CS(=O)(=O)Nc1cc(C(O)CNC(Cc2ccccc2)c2ccsc2)ccc1O (stereo unspecified)	0.3	1	129	110	
C[C@](Cc1ccccc1)(NC[C@H](O)c1ccc(O)c(NS(C)(=O)=O)c1)c1ccc(OC(F)F)cc1	14	12	9		
CS(=O)(=O)Nc1cc(C(O)CNC(Cc2ccccc2)c2ccc3sccc3c2)ccc1O (stereo unspecified)	2	19	230	90	
CS(=O)(=O)Nc1cc(C(O)CNC(Cc2ccccc2)c2ccncc2)ccc1O (stereo unspecified)	8	30	700	129	
CS(=O)(=O)Nc1cc(C(O)CNC(Cc2ccccc2)c2ccc(S(C)(=O)=O)cc2)ccc1O (stereo unspecified)	3	53	440	129	
CS(=O)(=O)Nc1cc([C@@H](O)CNC(Cc2ccccc2)c2ccc(OCc3ccccc3)cc2)ccc1O (stereo partly specified)			70		
CS(=O)(=O)Nc1cc(C(O)CNC(Cc2ccccc2)c2ccccc2)ccc1O (stereo unspecified)	3	15	360		Intrinsic activity [10]: 133%
CS(=O)(=O)Nc1cc([C@@H](O)CN[C@H](Cc2ccccc2)c2ccc(OC(F)F)c3ccccc23)ccc1O	9	275	2	100	Margin before onset of hypokalemia [11]: 2; Activity [6]: 23%; ED50 [7]: 0.25 mg/kg; Margin before onset of tachycardia [8]: 2
COC(=O)c1ccc([C@@H](Cc2ccccc2)NC[C@H](O)c2ccc(O)c(NS(C)(=O)=O)c2)cc1			85	98	
COc1ccc([C@@H](Cc2ccccc2)NC[C@H](O)c2ccc(O)c(NS(C)(=O)=O)c2)c2ccccc12	9	46	26	85	Activity [6]: 22%
COc1ccc([C@@H](Cc2ccccc2)NC[C@H](O)c2ccc(O)c(NS(C)(=O)=O)c2)cn1	30	180	25	101	Activity [6]: 70%
Cc1cc([C@@H](Cc2ccccc2)NC[C@H](O)c2ccc(O)c(NS(C)(=O)=O)c2)ccc1OC(F)F			69		
CS(=O)(=O)Nc1cc([C@@H](O)CN[C@H](Cc2ccccc2)c2ccc(OC(F)F)cc2)ccc1O	5	36	21	95	Intrinsic activity [12]: 45%; bioavailability [13]: 5%; Intrinsic activity [14]: 63%; Margin before onset of hypokalemia [15]: 25; Vd [16]: 10 L/kg; clearance [17]: 36 mL/min/kg; Activity [6]: 45%; half-life [18]: 438 min; Dose [9]: 0.1 mg/kg; ED50 [7]: 0.02 mg/kg; Activity [19]: 12 ug cm**-2 hr-1; Ki [20]: 4 µM; Margin before onset of tachycardia [21]: 5
